We go through 19 compounds from patent US20180305332A1, “Bispiperidinyl Derivatives as Liver X Receptor Beta Agonists, Compositions, and Their Use” (Merck Sharp & Dohme Corp., priority 2015, published 2018).

In assay [1] the target is T1, GST tagged LXRbeta LBD (ligand binding domain) (Homo sapiens, UniProt P55055).
T1 construct: purchased Invitrogen pv4658.pps
T1 sequence (P55055 222-460 limits assumed): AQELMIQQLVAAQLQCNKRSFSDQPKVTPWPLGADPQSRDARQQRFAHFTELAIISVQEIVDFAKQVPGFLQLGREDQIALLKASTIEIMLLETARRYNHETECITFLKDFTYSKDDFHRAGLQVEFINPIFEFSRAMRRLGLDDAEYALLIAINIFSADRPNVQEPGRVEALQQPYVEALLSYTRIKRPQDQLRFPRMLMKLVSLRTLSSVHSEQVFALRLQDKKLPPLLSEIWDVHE
The experiment in a line: LanthaScreen TR-FRET Liver X Receptor Coactivator Assay, LXR beta-LBD. Particulars: relative to reference T0901317; for EC50: Inflection Point (potency), co-activator recruitment, read-out: LXR beta IP; for Emax: read-out: LXR beta act @ max dose (%). The assay is classed as biochemical. The procedure: (§1) Potency (Inflection Point, IP) and efficacy (Emax) are evaluated via compound-induced co-activator recruitment to glutathione-S-transferase (GST) tagged LXRbeta and LXRalpha LBD (ligand binding domain) proteins in relation to reference dual agonist compound T0901317 (N-(2,2,2-Trifluoroethyl)-N-[4-[2,2,2-trifluoro-1-hydroxy-1-(trifluoromethyl)ethyl] phenyl]benzenesulfonamide) using the LanthaScreen™ TR-FRET Liver X Receptor Coactivator Assays according to manufacturer's instructions (Invitrogen catalog number pv4658.pps and pv4655). While running the LanthaScreen™ TR-FRET Liver X Receptor Coactivator Assay, LXR alpha-LBD or LXR beta-LBD was added to ligand test compounds followed by addition of a mixture of a fluorescein-labelled coactivator peptide and terbium-conjugated anti-GST antibody. After an incubation period at room temperature, TR-FRET (time-resolved fluorescence resonance energy transfer) was measured using a filter-based instrument capable of TR-FRET, e.g. PerkinElmer Envision.
A general note: In TR-FRET formats the signal depends on donor and acceptor labels being close together.

Assay [2] addresses T2, GST tagged LXRalpha LBD (ligand binding domain) (Homo sapiens, UniProt Q13133).
T2 construct: purchased Invitrogen pv4655
T2 sequence (Q13133 209-447 limits assumed): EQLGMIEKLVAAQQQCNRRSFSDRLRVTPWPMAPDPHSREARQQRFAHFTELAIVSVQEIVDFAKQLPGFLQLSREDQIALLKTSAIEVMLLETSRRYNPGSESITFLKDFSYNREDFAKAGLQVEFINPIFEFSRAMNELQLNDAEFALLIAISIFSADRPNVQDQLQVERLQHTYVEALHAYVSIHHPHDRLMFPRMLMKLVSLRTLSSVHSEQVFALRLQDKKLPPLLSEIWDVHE
The assay can be described thus: LanthaScreen TR-FRET Liver X Receptor Coactivator Assay, LXR alpha-LBD. To be noted: relative to reference T0901317; for EC50: read-out: LXR alpha IP; for Emax: read-out: LXR alpha act @ max dose (%). It is filed as biochemical. Here is the method: as §1

Setting [3] is: activity at max dose (efficacy).
The mark [4] stands for this setting: Inflection Point (potency), co-activator recruitment.

`CN(C)C(=O)c1ccc(N2CCC(C3CCN(C(=O)C(O)(C(C)(C)C)C(F)(F)F)CC3)CC2)cc1Cl` (single isomer, unassigned) [Example A-7, 2-Chloro-4-(1′-(2-hydroxy-3,3-dimethyl-2-(trifluoromethyl)butanoyl)-[4,4′-bipiperidin]-1-yl)-N,N-dimethylbenzamide]: the figures for the EC50 in assay [1] and in assay [2] (setting [4]) were 62 nM and 1400 nM, respectively. Also, the “LXR beta act @ max dose (%)” value in assay [1] (setting [3]) is 93%. The “LXR alpha act @ max dose (%)” value in assay [2] (setting [3]) is 56%.
Turning to `CN(C)C(=O)c1ccc(N2CCC(C3CCN(C(=O)[C@@](O)(c4ccccc4)C(F)(F)C(F)(F)F)CC3)CC2)cc1Cl` (single isomer, unassigned) [Example A-43], the EC50 amounted to 54 nM in assay [1] and 620 nM in assay [2] (setting [4]). Moreover, the Emax in assay [1] (setting [3]) is 128%; in assay [2] (setting [3]), 40%.
As for `CN(C)C(=O)c1ccc(N2CCC(C3CCN(C(=O)C4(c5ccccc5)CCC4)CC3)CC2)nc1Cl` [Example B-14, 2-chloro-N,N-dimethyl-6-{1′-[(1-phenylcyclobutyl)carbonyl]-4,4′-bipiperidin-1-yl}pyridine-3-carboxamide], the EC50 in assay [1] is 73 nM; in assay [2] (setting [4]), 1230 nM. Moreover, the results for the Emax in assay [1] (setting [3]) and in assay [2] (setting [3]) were 114% and 43%, respectively.
In the case of `O=C(c1c(F)cccc1F)N1CCC(C2CCN(c3ccc(C(=O)N4CCCC4CO)c(Cl)c3)CC2)CC1` (stereo not shown) [Example E-12, {1-[(2-chloro-4-{1′-[(2,6-difluorophenyl)carbonyl]-4,4′-bipiperidin-1-yl}phenyl)carbonyl]pyrrolidin-2-yl}methanol], the results for the EC50 in assay [1] and in assay [2] (setting [4]) were 128 nM and 1220 nM, respectively. In addition, the Emax in assay [1] (setting [3]) was 84%; in assay [2] (setting [3]) it was 58%.
For the compound `CC(C)C(O)(C(=O)N1CCC(C2CCN(c3ccc(C(=O)N(C)C)c(Cl)n3)CC2)CC1)C1CC1` (stereo not shown) [Example B-3, 2-chloro-6-[1′-(2-cyclopropyl-2-hydroxy-3-methylbutanoyl)-4,4′-bipiperidin-1-yl]-N,N-dimethylpyridine-3-carboxamide], the results for the EC50 in assay [1] and in assay [2] (setting [4]) were 325 nM and 1790 nM, respectively. Also, the values for the Emax in assay [1] (setting [3]) and in assay [2] (setting [3]) were 143% and 71%, respectively.
In the same order, the values of `CN(C)C(=O)c1ccc(N2CCC(C3CCN(C(=O)C(C)(c4ccccc4)C(F)(F)F)CC3)CC2)cc1Cl` (stereo not shown) [Example A-16, 2-chloro-N,N-dimethyl-4-[1′-(3,3,3-trifluoro-2-methyl-2-phenylpropanoyl)-4,4′-bipiperidin-1-yl]benzamide] are 14 nM, 861 nM, 109% and 33%.
On to `CC1CCC(C)N1C(=O)c1ccc(N2CCC(C3CCN(C(=O)[C@](O)(c4ccccc4)C(F)(F)F)CC3)CC2)cc1Cl` (stereo partly drawn) [Example E-27, (2R)-3-(1′-{3-chloro-4-[(2,5-dimethylpyrrolidin-1-yl)carbonyl]phenyl}-4,4′-bipiperidin-1-yl)-1,1,1-trifluoro-3-oxo-2-phenylpropan-2-ol], for which the EC50 in assay [1] was 53 nM. Also, the results for the Emax in assay [1] (setting [3]) and in assay [2] (setting [3]) were 58% and 0%, respectively. Moreover, the “LXR alpha IP (nM)” value in assay [2] (setting [4]) is listed as “NO IP”.
With `CN(C)C(=O)c1ccc(N2CCC(C3CCN(C(=O)C4(c5ccccc5)CCCC4)CC3)CC2)cc1Cl` [Example A-40, 2-chloro-N,N-dimethyl-4-{1′-[(1-phenylcyclopentyl)carbonyl]-4,4′-bipiperidin-1-yl}benzamide], the EC50 in assay [1] worked out at 37 nM; in assay [2] (setting [4]), 940 nM. The Emax stood at 113% in assay [1] (setting [3]) and 41% in assay [2] (setting [3]).
Consider `CN(C)C(=O)c1ccc(N2CCC(C3CCN(C(=O)c4c(F)cccc4F)CC3)CC2)nc1Cl` [Example B-8, 2-chloro-6-{1′-[(2,6-difluorophenyl)carbonyl]-4,4′-bipiperidin-1-yl}-N,N-dimethylpyridine-3-carboxamide], for which the EC50 was 71 nM in assay [1] and 885 nM in assay [2] (setting [4]). Moreover, the values for the Emax in assay [1] (setting [3]) and in assay [2] (setting [3]) were 95% and 38%, respectively.
In the same order, the values of `CN(C)C(=O)c1ccc(N2CCC(C3CCN(C(=O)C(O)(C(C)(C)C)C(F)(F)F)CC3)CC2)cc1Cl` (racemic) [Example A-4, 2-Chloro-4-(1′-(2-hydroxy-3,3-dimethyl-2-(trifluoromethyl)butanoyl)-[4,4′-bipiperidin]-1-yl)-N,N-dimethylbenzamide] are 29 nM, 735 nM, 104% and 65%.
In the same order, the values of `CN(C)S(=O)(=O)c1ccc(N2CCC(C3CCN(C(=O)[C@](O)(c4ccccc4)C(F)(F)F)CC3)CC2)cc1Cl` [Example D-4, 2-chloro-N,N-dimethyl-4-{1′-[(2R)-3,3,3-trifluoro-2-hydroxy-2-phenylpropanoyl]-4,4′-bipiperidin-1-yl}benzenesulfonamide] are 371 nM, 2050 nM, 89% and 29%.
With `O=C(c1ccc(N2CCC(C3CCN(C(=O)[C@](O)(c4ccccc4)C(F)(F)F)CC3)CC2)cc1Cl)N1CC(F)C1` [Example E-45, (2R)-3-(1′-{3-chloro-4-[(3-fluoroazetidin-1-yl)carbonyl]phenyl}-4,4′-bipiperidin-1-yl)-1,1,1-trifluoro-3-oxo-2-phenylpropan-2-ol], the results for the EC50 in assay [1] and in assay [2] (setting [4]) were 414 nM and 1020 nM, respectively. Besides, the Emax stood at 68% in assay [1] (setting [3]) and 12% in assay [2] (setting [3]).
Take `CN(C)C(=O)c1ccc(N2CCC(C3CCN(C(=O)C(C)(C)c4ccccc4)CC3)CC2)cc1Cl` [Example A-12, 2-chloro-N,N-dimethyl-4-[1′-(2-methyl-2-phenylpropanoyl)-4,4′-bipiperidin-1-yl]benzamide]: the EC50 came to 14 nM in assay [1] and 2460 nM in assay [2] (setting [4]). The values for the Emax in assay [1] (setting [3]) and in assay [2] (setting [3]) were 114% and 47%, respectively.
For `CN(C)C(=O)c1ccc(N2CCC(C3CCN(C(=O)C(F)(F)c4ccccc4Cl)CC3)CC2)cc1Cl` [Example A-62, 2-chloro-4-{1′-[(2-chlorophenyl)(difluoro)acetyl]-4,4′-bipiperidin-1-yl}-N,N-dimethylbenzamide], in that order: 22 nM, 782 nM, 131% and 74%.
As for `O=C(c1ccc(N2CCC(C3CCN(C(=O)[C@](O)(c4ccccc4)C(F)(F)F)CC3)CC2)cc1Cl)N1CCC(O)C1` (stereo partly drawn) [Example E-24, 1-[(2-chloro-4-{1′-[(2R)-3,3,3-trifluoro-2-hydroxy-2-phenylpropanoyl]-4,4′-bipiperidin-1-yl}phenyl)carbonyl]pyrrolidin-3-ol], the values for the EC50 in assay [1] and in assay [2] (setting [4]) were 323 nM and 3090 nM, respectively. For the same compound, the Emax in assay [1] (setting [3]) amounted to 76%; in assay [2] (setting [3]), 27%.
As for `CN(C)C(=O)c1ccc(N2CCC(C3CCN(C(=O)C4(c5ccccc5F)CCC4)CC3)CC2)cc1Cl` [Example A-73, 2-chloro-4-(1′-{[1-(2-fluorophenyl)cyclobutyl]carbonyl}-4,4′-bipiperidin-1-yl)-N,N-dimethylbenzamide], the EC50 in assay [1] is 30 nM; in assay [2] (setting [4]), 1020 nM. Besides, the Emax in assay [1] (setting [3]) stood at 113%; in assay [2] (setting [3]), 61%.
For `CN(C)C(=O)c1ccc(N2CCC(C3CCN(C(=O)C4(c5ccccc5)CCC4)CC3)CC2)cc1Cl` [Example A-14, 2-chloro-N,N-dimethyl-4-{1′-[(1-phenylcyclobutyl)carbonyl]-4,4′-bipiperidin-1-yl}benzamide], in that order: 36 nM, 1530 nM, 114% and 38%.
On to `CC(C)C(O)(C(=O)N1CCC(C2CCN(c3ccc(C(=O)N(C)C)c(Cl)c3)CC2)CC1)C(C)C` [Example A-109, 2-chloro-4-{1′-[2-hydroxy-3-methyl-2-(1-methylethyl)butanoyl]-4,4′-bipiperidin-1-yl}-N,N-dimethylbenzamide], for which the EC50 in assay [1] was found to be 61 nM; in assay [2] (setting [4]), 54200 nM. The Emax stood at 98% in assay [1] (setting [3]) and 22% in assay [2] (setting [3]).
As for `CN(C)C(=O)c1ccc(N2CCC(C3CCN(C(=O)C(C)(C)c4ccccc4F)CC3)CC2)cc1Cl` [Example A-80, 2-chloro-4-{1′-[2-(2-fluorophenyl)-2-methylpropanoyl]-4,4′-bipiperidin-1-yl}-N,N-dimethylbenzamide], the EC50 in assay [1] was 31 nM; in assay [2] (setting [4]), 1170 nM. Besides, the results for the Emax in assay [1] (setting [3]) and in assay [2] (setting [3]) were 116% and 67%, respectively.
